Source: patent US20230129359A1, “MUSCARINIC RECEPTOR 4 ANTAGONISTS AND METHODS OF USE” (Neurocrine Biosciences, Inc., priority 2020, published 2023)

The molecules below were run against T1, human M4 receptor (Homo sapiens, UniProt P08173) (assay: Radioligand ([3H]N-methylscopolamine) binding assay, membranes from CHO cells expressing human M4 receptor). Settings: Ki against human M4 receptor; membranes from CHO cells; tritiated N-methylscopolamine 1.5 nM; read-out: K.
T1 construct: expressed in transfected cells; host or cells: CHO cells
T1 sequence (P08173 1-479): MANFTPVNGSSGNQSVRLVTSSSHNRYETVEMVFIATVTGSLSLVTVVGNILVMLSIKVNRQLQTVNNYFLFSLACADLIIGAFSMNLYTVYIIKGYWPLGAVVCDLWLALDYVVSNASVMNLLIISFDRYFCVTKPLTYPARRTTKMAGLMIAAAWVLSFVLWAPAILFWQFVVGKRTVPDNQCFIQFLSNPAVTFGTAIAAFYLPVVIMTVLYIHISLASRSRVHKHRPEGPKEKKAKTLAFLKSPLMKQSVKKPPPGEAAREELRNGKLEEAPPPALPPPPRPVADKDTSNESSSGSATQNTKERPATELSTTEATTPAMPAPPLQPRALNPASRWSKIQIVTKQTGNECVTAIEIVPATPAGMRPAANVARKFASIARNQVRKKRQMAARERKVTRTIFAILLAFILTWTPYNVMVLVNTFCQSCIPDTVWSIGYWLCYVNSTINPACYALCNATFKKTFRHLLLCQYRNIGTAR
Method: Binding affinity (Ki) for the compounds was measured by inhibition of radioligand binding to membranes from CHO cells expressing human M4 receptor. Membranes were prepared by nitrogen cavitation and differential centrifugation as previously described (Hoare et al., Mol. Pharmacol. 2003 March; 63(3): 751-65). The radioligand employed was tritiated N-methylscopolamine, used at a concentration of 1.5 nM. A dose-response of twelve concentrations of compound was used, ranging from […]. The assay buffer was 50 mM HEPES, 100 mM NaCl, 5 mM MgCl2, 1 mM ethylenediaminetetraacetic acid, pH-adjusted to pH 7.4. Membranes, radioligand and compound were incubated together for 90 minutes at 37° C., in a total volume of 150 μL in a 96-well plate. Receptor-bound radioligand was then collected by harvesting the assay over glass fiber filters pretreated with polyethylenimine to trap the cell membranes, using rapid vacuum filtration. Harvesting and radioactivity counting was conducted as previously described (see, e.g., Hoare et al., Mol. Pharmacol. 2003 63(3):751-65); Erratum at Mol. Pharmacol. 2005 July; 68(1): 260).

SMILES | Ki
C[C@@H]1CN(c2ncc(C(F)(F)F)cn2)[C@H](C)CN1C(=O)NC1CC2(C1)CN(Cc1ccccc1)C2 [Compound 38, (2R,5R)-N-{2-benzyl-2-azaspiro[3.3]heptan-6-yl}-2,5-dimethyl-4-[5-(trifluoromethyl)pyrimidin-2-yl]piperazine-1-carboxamide] | 10 to 100 nM
C[C@@H]1CN(c2cnc(C(F)(F)F)cn2)[C@@H](C)CN1C(=O)NC1CC2(C1)CN(Cc1ccccc1)C2 [Compound 35, (2R,5S)-N-{2-benzyl-2-azaspiro[3.3]heptan-6-yl}-2,5-dimethyl-4-[5-(trifluoromethyl)pyrazin-2-yl]piperazine-1-carboxamide] | 10 to 100 nM
[2H]c1c([2H])c([2H])c(C([2H])([2H])N2CC3(CC(NC(=O)N4[C@H](C)CN(c5ncc(C(F)(F)F)cn5)C[C@@H]4C)C3)C2)c([2H])c1[2H] [Compound 275, (2R,6S)-2,6-dimethyl-N-{2-[(^2H5)phenyl(^2H2)methyl]-2-azaspiro[3.3]heptan-6-yl}-4-[5-(trifluoromethyl)pyrimidin-2-yl]piperazine-1-carboxamide] | < 10 nM
[2H]c1c([2H])c([2H])c(C([2H])([2H])N2CC3(CC(OC(=O)N4[C@H](C)CN(c5cnc(C(F)(F)F)cn5)C[C@@H]4C)C3)C2)c([2H])c1[2H] [Compound 388, 2-[(^2H5)phenyl(^2H2)methyl]-2-azaspiro[3.3]heptan-6-yl (2R,6S)-2,6-dimethyl-4-[5-(trifluoromethyl)pyrazin-2-yl]piperazine-1-carboxylate] | 10 to 100 nM
C[C@@H]1CN(c2ncc(C(F)(F)F)cn2)C[C@H](C)N1C(=O)NC1CC2(C1)CN(Cc1ccc3occc3c1)C2 [Compound 298, (2R,6S)-N-[2-(1-benzofuran-5-ylmethyl)-2-azaspiro[3.3]heptan-6-yl]-2,6-dimethyl-4-[5-(trifluoromethyl)pyrimidin-2-yl]piperazine-1-carboxamide] | < 10 nM
CNC(=O)c1cnc(N2C[C@@H](C)N(C(=O)OC3CC4(C3)CN(Cc3ccccc3)C4)[C@@H](C)C2)nc1 [Compound 471, 2-benzyl-2-azaspiro[3.3]heptan-6-yl (2R,6S)-2,6-dimethyl-4-[5-(methylcarbamoyl)pyrimidin-2-yl]piperazine-1-carboxylate] | 100 to 1000 nM
C[C@@H]1CN(c2ncc(C(F)(F)F)cn2)C[C@@H](C)N1C(=O)OC1(C)CC2(CN(Cc3ccccc3)C2)C1 [Compound 355, 2-benzyl-6-methyl-2-azaspiro[3.3]heptan-6-yl (2R,6R)-2,6-dimethyl-4-[5-(trifluoromethyl)pyrimidin-2-yl]piperazine-1-carboxylate] | 10 to 100 nM
O=C(OC1CC2(C1)CN(Cc1ccccc1)C2)N1CCN(c2ccc(OC(F)(F)F)cc2)CC1 [Compound 108, 2-benzyl-2-azaspiro[3.3]heptan-6-yl 4-[4-(trifluoromethoxy)phenyl]piper-azine-1-carboxylate] | 100 to 1000 nM
C[C@@H]1CN(c2nc3ccc(F)cc3s2)C[C@@H](C)N1C(=O)OC1CC2(C1)CN(Cc1ccccc1)C2 [Compound 369, 2-benzy-2-azaspiro[3.3]heptan-6-yl (2R,6R)-4-(6-fluoro-1,3-benzothiazol-2-yl)-2,6-dimethylpiperazine-1-carboxylate] | 10 to 100 nM
Cc1nc(N2C[C@@H](C)N(C(=O)OC3CC4(C3)CN(Cc3ccccc3)C4)[C@@H](C)C2)ncc1Cl [Compound 279, 2-benzyl-2-azaspiro[3.3]heptan-6-yl (2R,6S)-4-(5-chloro-4-methylpyrimidin-2-yl)-2,6-dimethylpiperazine-1-carboxylate] | 10 to 100 nM
C[C@@H]1CN(c2ncc(C(F)(F)F)cn2)C[C@H](C)N1C(=O)NC1CC2(C1)CN(Cc1cccnc1Cl)C2 [Compound 291, (2R,6S)-N-{2-[(2-chloropyridin-3-yl)methyl]-2-azaspiro[3.3]heptan-6-yl}-2,6-dimethyl-4-[5-(trifluoromethyl)pyrimidin-2-yl]piperazine-1-carboxamide] | 100 to 1000 nM
C[C@@H]1CN(c2ncc(C(F)(F)F)cn2)C[C@H](C)N1C(=O)NC1CC2(C1)CN(CC1CC(F)(F)C1)C2 [Compound 333, (2R,6S)-N-{2-[(3,3-difluorocyclobutyl)methyl]-2-azaspiro[3.3]heptan-6-yl}-2,6-dimethyl-4-[5-(trifluoromethyl)pyrimidin-2-yl]piperazine-1-carboxamide] | 100 to 1000 nM
C[C@@H]1CN(c2nc3cc(F)ccc3o2)C[C@@H](C)N1C(=O)OC1CC2(C1)CN(Cc1ccccc1)C2 [Compound 442, 2-benzyl-2-azaspiro[3.3]heptan-6-yl (2R,6R)-4-(5-fluoro-1,3-benzoxazol-2-yl)-2,6-dimethylpiperazine-1-carboxylate] | 100 to 1000 nM
C[C@@H]1CN(c2nc3ccc(C(F)(F)F)cc3s2)C[C@H](C)N1C(=O)OC1CC2(C1)CN(Cc1ccncc1)C2 [Compound 416, 2-(pyridin-4-ylmethyl)-2-azaspiro[3.3]heptan-6-yl (2R,6)S-2,6-dimethyl-4-[6-(trifluoromethyl)-1,3-benzothiazol-2-yl]piperazine-1-carboxylate] | < 10 nM
C[C@@H]1CN(c2ncc(C(F)(F)F)c(N)n2)C[C@H](C)N1C(=O)OC1CC2(C1)CN(Cc1ccccc1)C2 [Compound 463, 2-benzyl-2-azaspiro[3.3]heptan-6-yl (2R,6S)-4-[4-amino-5-(trifluoromethyl)pyrimidin-2-yl]-2,6-dimethylpiperazine-1-carboxylate] | < 10 nM

Second part, the molecule after the results:

Ki | SMILES
10 to 100 nM | C[C@@H]1CN(c2ccc(C(F)(F)F)cc2)CCN1C(=O)OC1CC2(C1)CN(Cc1ccccc1)C2 [Compound 528, 2-benzyl-2-azaspiro[3.3]heptan-6-yl (2R)-2-methyl-4-[4-(trifluoromethyl)phenyl]pipera-zine-1-carboxylate]
< 10 nM | C[C@@H]1CN(c2cnc3cc(C(F)(F)F)ccc3n2)[C@@H](C)CN1C(=O)OC1CC2(C1)CN(Cc1ccccc1)C2 [Compound 380, 2-benzyl-2-azaspiro[3.3]heptan-6-yl (2R,5S)-2,5-dimethyl-4-[6-(trifluoromethyl)quinoxalin-2-yl]piperazine-1-carboxylate]
< 10 nM | C[C@@H]1CN(c2cnc(OC(F)(F)F)cn2)C[C@H](C)N1C(=O)OC1CC2(C1)CN(Cc1ccccc1)C2 [Compound 202, 2-benzyl-2-azaspiro[3.3]heptan-6-yl (2R,6S)-2,6-dimethyl-4-[5-(trifluoromethoxy)pyrazin-2-yl]piperazine-1-carboxylate]
< 10 nM | C[C@@H]1CN(c2nc3ccc(F)cc3s2)C[C@H](C)N1C(=O)OC1CC2(C1)CN(Cc1ccc(F)cc1)C2 [Compound 381, 2-[(4-fluorophenyl)methyl]-2-azaspiro[3.3]heptan-6-yl (2R,6S)-4-(6-fluoro-1,3-benzothiazol-2-yl)-2,6-dimethylpiperazine-1-carboxylate]
10 to 100 nM | C[C@@H]1CN(c2cnc(C(F)(F)F)cn2)C[C@H](C)N1C(=O)OC1CC2(C1)CN(Cc1ccc(Cl)cc1)C2 [Compound 479, 2-[(4-chlorophenyl)methyl]-2-azaspiro[3.3]heptan-6-yl (2R,6S)-2,6-dimethyl-4-[5-(trifluoromethyl)pyrazin-2-yl]piperazine-1-carboxylate]
< 10 nM | C[C@@H]1CN(c2ncc(C(F)(F)F)cn2)C[C@H](C)N1C(=O)OC1CC2(C1)CN(CC1CC1(C)C)C2 (stereo partly drawn) [Compound 153, 2-[(2,2-dimethylcyclopropyl)methyl]-2-azaspiro[3.3]heptan-6-yl (2R,6S)-2,6-dimethyl-4-[5-(trifluoromethyl)pyrimidin-2-yl]piperazine-1-carboxylate]
10 to 100 nM | CSc1nc(N2C[C@@H](C)N(C(=O)OC3CC4(C3)CN(Cc3ccccc3)C4)[C@H](C)C2)ncc1Br [Compound 170, 2-benzyl-2-azaspiro[3.3]heptan-6-yl (2R,6R)-4-[5-bromo-4-(methylsulfanyl)pyrimidin-2-yl]-2,6-dimethylpiperazine-1-carboxylate]
10 to 100 nM | C[C@@H]1CN(c2nc3ccccc3s2)CCN1C(=O)NC1CC2(C1)CN(Cc1ccccc1)C2 [Compound 245, (2R)-4-(1,3-benzothiazol-2-yl)-N-{2-benzyl-2-azaspiro[3.3]heptan-6-yl}-2-methylpiperazine-1-carboxamide]
100 to 1000 nM | C[C@@H]1CN(c2cnc(C(F)(F)F)cn2)C[C@@H](C)N1C(=O)NC1CC2(C1)CN(Cc1ccc(Cl)cc1)C2 [Compound 259, (2R,6R)-N-{2-[(4-chlorophenyl)methyl]-2-azaspiro[3.3]heptan-6-yl}-2,6-dimethyl-4-[5-(trifluoromethyl)pyrazin-2-yl]piperazine-1-carboxamide]
